Results reported in ChEMBL document CHEMBL5724696, “Autophagy assay results for EUbOPEN Chemogenomics Library” (2024).

Columns and labels:
[1] = tested on: U2OS; experiment: (§1) Here: values are normalized to the positive (DMSO; basel flux = defined as 100% suppression) and negative (250nM Torin1; mTOR inhibitor; maximal inducer of autophagy defined as 0% suppression) control compounds and represented as % of ER-phagy suppression. […] The impact of autophagy induction on cells is complex and depends on the affected target. […] Of note, treatment concentrations may be sub-optimal for specific compounds, leading to false negative annotations.; format: functional, Homo sapiens; conditions: Compound Concentration 1 uM, Culturing Media DMEM, 1 % Penicillin/Streptomycin, 10% Fetal bovin serum Add-On: blasticidin, Screening Media Control DMEM, 10% Fetal bovin serum Add-On: 1 µg/ml Doxycyclin, Screening Media Samples DMEM, 10% Fetal bovin serum Add-On: 1 µg/ml Doxycyclin 250nM Torin1
[2] = tested on: U2OS; experiment: as §1; format: functional, Homo sapiens; conditions: Compound Concentration 1 uM, Culturing Media DMEM, 1 % Penicillin/Streptomycin, 10% Fetal bovin serum Add-On: blasticidin, Screening Media Control DMEM, 10% Fetal bovin serum Add-On: 1 µg/ml Doxycyclin, Screening Media Samples DMEM, 10% Fetal bovin serum Add-On: 1 µg/ml Doxycyclin 250nM Torin1; remark: listed apart in the source

| SMILES | ER-phagy suppression ([1]; Timepoint 12 hours) | ER-phagy suppression ([1]; Timepoint 24 hours) | ER-phagy suppression ([1]; Timepoint 36 hours) | ER-phagy suppression ([1]; Timepoint 54 hours) | ER-phagy suppression ([2]; Timepoint 12 hours) | ER-phagy suppression ([2]; Timepoint 24 hours) | ER-phagy suppression ([2]; Timepoint 36 hours) | ER-phagy suppression ([2]; Timepoint 60 hours) |
| --- | --- | --- | --- | --- | --- | --- | --- | --- |
| CCN(Cc1ccc(Cl)cc1)c1ncc(C(=O)NCCCN2CCCC2=O)c(NC2CCCC2)n1 | -0.9186% | -13.7517% | -21.2457% | -16.9406% | 19.3372% | 13.3398% | 3.8795% | -6.981% |
| OCCn1cc(-c2ccc3c(c2)CCC3=NO)c(-c2ccncc2)n1 | -23.6151% | -59.1263% | -53.5237% | -39.7477% | 13.4101% | 0.6971% | -0.91% | 0.4621% |
| Cc1ccc(NC(=O)Nc2cc(C(F)(F)F)ccc2F)cc1Nc1ccc2c(c1)NC(=O)/C2=C\c1ccc[nH]1 | -7.664% | -22.8744% | -24.0512% | -22.1975% | 18.743% | -2.579% | -6.116% | -1.261% |
| O=c1cc(-c2cccc3c2Sc2ccccc2S3)oc(N2CCOCC2)c1 [KU-55933] | 6.867% | -4.052% | -12.4961% | -6.9587% | 55.4841% | 58.138% | 50.8459% | 57.1444% |
| CN1C(=O)[C@@H](N2CCc3cn(Cc4ccccc4)nc3C2=O)COc2ccccc21 [TP-030-1] | -1.154% | -18.125% | -30.7242% | -23.6126% | -22.1461% | -11.0455% | -18.8351% | -24.8138% |
| Cc1cc(C)c(-n2ccn3nc(-c4cccnc4)cc23)cc1NC(=O)c1cc(C#N)cc(S(F)(F)(F)(F)F)c1 [BAY-826] | 21.4229% | 9.146% | 4.6% | 19.8518% | 10.7254% | 6.3786% | 7.428% | 6.537% |
| O=c1cc(N2CCOCC2)oc2c(-c3cccc4c3sc3ccccc34)cccc12 | 29.2209% | 24.7237% | 22.7043% | 31.557% | 23.1915% | 21.6983% | 3.92% | -4.5% |
| Cl.NC(=O)c1cnc(N[C@@H]2CCCC[C@@H]2N)nc1Nc1cccc(-n2nccn2)c1 | 27.5492% | 18.4362% | 21.4313% | 34.0409% | 9.977% | 25.4122% | 28.6706% | 31.7231% |
| O=c1cc(N2CCOCC2)oc2c1ccc1ccccc12 | 4.944% | -13.6038% | -17.5746% | -11.078% | -2.095% | 14.4083% | 8.467% | 13.3057% |
| CC(=O)Nc1ccc2ccn(-c3cc(NC4CC4)n4ncc(C#N)c4n3)c2c1 | 46.1231% | 56.6622% | 75.9855% | 85.4784% | 13.0338% | 48.9829% | 66.3165% | 75.9257% |
